Laboratory results as given in ChEMBL document CHEMBL1201862, “PubChem BioAssay data set” (2004).
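Growth conditions: 96-well plates. Treatment: test compound, 48 hours, 5 concentrations. Analysis: linear interpolation between bracketing concentrations; unreached endpoints set to highest concentration. GI50 = concentration required for 50% inhibition of growth.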 Activity calls are given as the source filed them. No stated cut-off is given here; in the data, active = GI50 up to about 1.1 µM and inactive = higher.

Experiments:
Test in all cases: NCI tumour cell line growth inhibition, 48 h
PC-3 = tested on: PC-3
SK-MEL-28 = tested on: SK-MEL-28
HCT-15 = tested on: HCT-15
786-0 = tested on: 786-0
NCI/ADR-RES = tested on: NCI/ADR-RES
A498 = tested on: A498
CAKI-1 = tested on: CAKI-1
M14 = tested on: M14
IGROV-1 = tested on: IGROV-1
HCT-116 = tested on: HCT-116
NCI-H226 = tested on: NCI-H226
TK-10 = tested on: TK-10
CCRF-CEM = tested on: CCRF-CEM
SR = tested on: SR
RPMI-8226 = tested on: RPMI-8226
K562 = tested on: K562
MCF7 = tested on: MCF7
OVCAR-3 = tested on: OVCAR-3
SK-OV-3 = tested on: SK-OV-3
HT-29 = tested on: HT-29
SNB-19 = tested on: SNB-19
HL-60 = tested on: HL-60
MOLT-4 = tested on: MOLT-4
Hs-578T = tested on: Hs-578T
A549 = tested on: A549
UACC-62 = tested on: UACC-62
ACHN = tested on: ACHN
SF-295 = tested on: SF-295
RXF 393 = tested on: RXF 393
MDA-N = tested on: MDA-N
HCC 2998 = tested on: HCC 2998
SK-MEL-2 = tested on: SK-MEL-2
EKVX = tested on: EKVX
KM12 = tested on: KM12
SN12C = tested on: SN12C
SW-620 = tested on: SW-620
SF-268 = tested on: SF-268
UO-31 = tested on: UO-31
OVCAR-4 = tested on: OVCAR-4
SF-539 = tested on: SF-539
MDA-MB-435 = tested on: MDA-MB-435
U-251 = tested on: U-251
SK-MEL-5 = tested on: SK-MEL-5
NCI-H23 = tested on: NCI-H23
BT-549 = tested on: BT-549
DU-145 = tested on: DU-145
T47D = tested on: T47D
UACC-257 = tested on: UACC-257
OVCAR-5 = tested on: OVCAR-5
COLO 205 = tested on: COLO 205
NCI-H460 = tested on: NCI-H460
NCI-H522 = tested on: NCI-H522
LOX IMVI = tested on: LOX IMVI
HOP-62 = tested on: HOP-62
Malme-3M = tested on: Malme-3M
MDA-MB-231 = tested on: MDA-MB-231
OVCAR-8 = tested on: OVCAR-8

COc1ccc(CNC(=O)[C@H](Cc2ccc(O)cn2)NC(C)=O)cc1
GI50 (PC-3): > 100 µM (inactive)
GI50 (SK-MEL-28): > 100 µM (inactive)
GI50 (HCT-15): > 100 µM
GI50 (786-0): > 100 µM (inactive)
GI50 (NCI/ADR-RES): > 100 µM (inactive)
GI50 (A498): > 100 µM (inactive)
GI50 (CAKI-1): > 100 µM (inactive)
GI50 (M14): > 100 µM (inactive)
GI50 (IGROV-1): > 100 µM (inactive)
GI50 (HCT-116): 89.3 µM (inactive)
GI50 (NCI-H226): > 100 µM (inactive)
GI50 (TK-10): > 100 µM (inactive)
GI50 (CCRF-CEM): > 100 µM (inactive)
GI50 (SR): > 100 µM (inactive)
GI50 (RPMI-8226): 64.9 µM (inactive)
GI50 (K562): > 100 µM (inactive)
GI50 (MCF7): > 100 µM (inactive)
GI50 (OVCAR-3): > 100 µM (inactive)
GI50 (SK-OV-3): > 100 µM (inactive)
GI50 (HT-29): > 100 µM (inactive)
GI50 (SNB-19): > 100 µM (inactive)
GI50 (HL-60): > 100 µM (inactive)
GI50 (MOLT-4): > 100 µM (inactive)
GI50 (Hs-578T): > 100 µM (inactive)
GI50 (A549): > 100 µM (inactive)
GI50 (UACC-62): > 100 µM (inactive)
GI50 (ACHN): > 100 µM (inactive)
GI50 (SF-295): > 100 µM (inactive)
GI50 (RXF 393): > 100 µM (inactive)
GI50 (MDA-N): > 100 µM (inactive)
GI50 (HCC 2998): > 100 µM (inactive)
GI50 (SK-MEL-2): > 100 µM (inactive)
GI50 (EKVX): 87.7 µM (inactive)
GI50 (KM12): > 100 µM (inactive)
GI50 (SN12C): > 100 µM (inactive)
GI50 (SW-620): > 100 µM (inactive)
GI50 (SF-268): > 100 µM (inactive)
GI50 (UO-31): > 100 µM (inactive)
GI50 (OVCAR-4): > 100 µM (inactive)
GI50 (SF-539): > 100 µM (inactive)
GI50 (MDA-MB-435): > 100 µM (inactive)
GI50 (U-251): > 100 µM (inactive)
GI50 (SK-MEL-5): > 100 µM (inactive)
GI50 (NCI-H23): > 100 µM (inactive)
GI50 (BT-549): > 100 µM (inactive)
GI50 (DU-145): > 100 µM (inactive)
GI50 (T47D): > 100 µM (inactive)
GI50 (UACC-257): > 100 µM (inactive)
GI50 (OVCAR-5): > 100 µM (inactive)
GI50 (COLO 205): > 100 µM (inactive)
GI50 (NCI-H460): > 100 µM (inactive)
GI50 (NCI-H522): > 100 µM (inactive)
GI50 (LOX IMVI): > 100 µM (inactive)
GI50 (HOP-62): > 100 µM (inactive)

CO[C@H]1SC[C@H](OC(C)=O)[C@H](OC(C)=O)[C@H]1OC(C)=O
GI50 (SK-MEL-28): > 100 µM (inactive)
GI50 (HCT-15): > 100 µM
GI50 (786-0): > 100 µM (inactive)
GI50 (NCI/ADR-RES): > 100 µM (inactive)
GI50 (CAKI-1): > 100 µM (inactive)
GI50 (M14): > 100 µM (inactive)
GI50 (IGROV-1): > 100 µM (inactive)
GI50 (HCT-116): > 100 µM (inactive)
GI50 (NCI-H226): > 100 µM (inactive)
GI50 (TK-10): > 100 µM (inactive)
GI50 (CCRF-CEM): > 100 µM (inactive)
GI50 (SR): > 100 µM (inactive)
GI50 (RPMI-8226): > 100 µM (inactive)
GI50 (K562): > 100 µM (inactive)
GI50 (MCF7): > 100 µM (inactive)
GI50 (OVCAR-3): > 100 µM (inactive)
GI50 (HT-29): > 100 µM (inactive)
GI50 (SNB-19): > 100 µM (inactive)
GI50 (HL-60): > 100 µM (inactive)
GI50 (MOLT-4): > 100 µM (inactive)
GI50 (Hs-578T): > 100 µM (inactive)
GI50 (A549): > 100 µM (inactive)
GI50 (Malme-3M): > 100 µM (inactive)
GI50 (UACC-62): 93.8 µM (inactive)
GI50 (ACHN): > 100 µM (inactive)
GI50 (SF-295): > 100 µM (inactive)
GI50 (MDA-N): > 100 µM (inactive)
GI50 (HCC 2998): > 100 µM (inactive)
GI50 (MDA-MB-231): > 100 µM (inactive)
GI50 (SK-MEL-2): > 100 µM (inactive)
GI50 (EKVX): > 100 µM (inactive)
GI50 (KM12): > 100 µM (inactive)
GI50 (SN12C): > 100 µM (inactive)
GI50 (OVCAR-8): > 100 µM (inactive)
GI50 (SW-620): > 100 µM (inactive)
GI50 (SF-268): > 100 µM (inactive)
GI50 (UO-31): > 100 µM (inactive)
GI50 (OVCAR-4): > 100 µM (inactive)
GI50 (SF-539): > 100 µM (inactive)
GI50 (MDA-MB-435): > 100 µM (inactive)
GI50 (U-251): > 100 µM (inactive)
GI50 (SK-MEL-5): > 100 µM (inactive)
GI50 (NCI-H23): > 100 µM (inactive)
GI50 (BT-549): > 100 µM (inactive)
GI50 (DU-145): > 100 µM (inactive)
GI50 (T47D): > 100 µM (inactive)
GI50 (UACC-257): > 100 µM (inactive)
GI50 (COLO 205): > 100 µM (inactive)
GI50 (NCI-H460): > 100 µM (inactive)
GI50 (NCI-H522): > 100 µM (inactive)
GI50 (LOX IMVI): > 100 µM (inactive)
GI50 (HOP-62): > 100 µM (inactive)
